From article PMC9611471 (Pharmaceutics, 2022)

Legend:
[1] = In vitro metabolic stability, rat liver microsomes; type: in vitro ADME; settings: pooled liver microsomes, NADPH, 37 °C, 0 and 30 min
A549 cells [2] = assay: Cytotoxicity after SK1/SK2 siRNA transfection; type: cell-based, human; settings: A549 cells transfected with siSK1, siSK2; 24 h
Procedure: Control small interfering RNA (siControl) was obtained from Bioneer (Daejeon, Korea), while SK1 (sc-44114) and SK2 (sc-39225) siRNA (siSK1 and siSK2) were purchased from Santa Cruz Biotechnology (Dallas, TX, USA). Cells were transfected using Lipofectamine RNAiMAX Reagent (Invitrogen, Carlsbad, CA, USA) according to the manufacturer’s instructions. Transfection efficiency was monitored by Western blot. After 24 h of infection, cytotoxicity was measured using infected cells.

SK1 [3] = target: T1, SK1 (Homo sapiens, UniProt Q9NYA1); assay: SK1 activity assay (Adapta screening system)
T1 sequence (Q9NYA1 whole entry): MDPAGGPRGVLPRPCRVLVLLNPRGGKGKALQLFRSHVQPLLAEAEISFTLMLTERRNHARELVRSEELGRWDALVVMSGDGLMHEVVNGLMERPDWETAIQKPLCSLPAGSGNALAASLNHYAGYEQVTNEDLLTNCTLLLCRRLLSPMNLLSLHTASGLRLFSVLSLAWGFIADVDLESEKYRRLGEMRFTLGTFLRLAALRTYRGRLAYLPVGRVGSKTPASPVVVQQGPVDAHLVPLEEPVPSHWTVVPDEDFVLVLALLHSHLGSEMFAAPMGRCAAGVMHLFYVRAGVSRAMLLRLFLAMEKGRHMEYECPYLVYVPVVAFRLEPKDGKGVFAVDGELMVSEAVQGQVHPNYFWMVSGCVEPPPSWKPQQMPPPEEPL

A549 cells [4] = assay: SK1 and SK2 protein (Western blotting) and mRNA (qRT-PCR) levels; type: cell-based, human; settings: 5 and 10 μM, 24 h
Procedure: (§1) Western blotting measured changes in apoptosis-related proteins (PARP, BAX, BCL-2, Caspase-3). A549 cells (1 × 10^6 cells per well in 6-well plates) were incubated for 24 h. Cells were treated with concentrations of the compounds and incubated for 24 h. Then, cells were dissolved on ice for two hours with a lysis buffer containing a mixture of protease and phosphatase inhibitors. The lysate was centrifuged at 12,000× g for 15 min at 4 °C, and the supernatant was collected. Protein concentrations were measured using a bicinchoninic acid protein assay kit. Total protein was separated by 8–10% sodium dodecyl sulfate–polyacrylamide gel electrophoresis (SDS-PAGE) and transferred onto polyvinylidene fluoride (PVDF) membranes. After being blocked with 5% skim milk, membranes were probed overnight at 4 °C with primary antibodies against SK1, SK2, PARP, BAX, Bcl-2, Caspase-3, and β-actin. Then, the membranes were incubated with subsequent secondary antibodies at room temperature. Then, the protein expressions were measured by Amersham Imager 680 (GE Healthcare, Leiden, WZ, The Netherlands).
RNAs were isolated using the Trizol/chloroform reagent (Invitrogen, Waltham, MA, USA). […] For quantitative analysis of various genes, qRT-PCR was performed using the Bio-Rad CFX384 Touch Real-time PCR detection system (Bio-Rad, Hercules, CA, USA) with SYBR Premix Ex Taq (Takara Bio, Shiga, Japan) for 40 cycles.

A549 cells [5] = assay: Mitochondrial membrane potential measurement (JC-10); type: cell-based, human; settings: 10 μM, 24 h
Procedure: To access the mechanism of cell death, Mitochondrial Membrane Potential (MMP) was performed using JC-10 cationic dye. […] Cells were collected, and 20 μM JC-10 dye prepared in HBSS solution (0.14 M NaCl, 0.005 M KCl, 0.001 M CaCl2, 0.005 M MgSO4-7H2O, 0.0004 M MgSO4-6H2O, 0.0003 M Na2HPO4-2H2O, 0.0004 M KH2PO4, 0.006 M D-glucose, 0.004 M NaHCO3, 0.002 M HEPES, and 0.02% Pluronic® F-127) was added to the cell for 30 min and mixed. The samples were protected from light and measured by using the MACS Quant Analyzer 10 Flow cytometer.

[6] = In vitro metabolic stability, human liver microsomes; settings: pooled liver microsomes 0.5 mg/mL, NADPH, 37 °C, 0 and 30 min
A549 and H1299 cells = assay: Cell proliferation / viability assay (EZ-CYTOX)
[7] = In vitro metabolic stability, dog liver microsomes; type: in vitro ADME; settings: pooled liver microsomes, NADPH, 37 °C, 0 and 30 min
A549 cells [8] = assay: Colony formation assay; type: cell-based, human; settings: 5 and 10 μM
Procedure: A549 cells (1 × 10^3 cells/well) were seeded into six-well plates and then each compound was treated at 5 and 10 μM for 12 h. The medium was changed every two days, and the cells were cultured in a fresh medium for 10 days. The obtained colonies were fixed with 25% glutaraldehyde for 20 min and then stained with 0.1% crystal violet for 15 min.

A549 cells [9] = assay: Annexin V-FITC apoptosis analysis; type: cell-based, human; settings: 24 h
Procedure: A549 cells (1 × 10^5 cells) were seeded in into a 12-well plate. […] After harvesting the cells, the binding buffer was added and then incubated with annexin-V-FITC and PI at room temperature for 15 min. The stained cells were analyzed with MACS Quant Analyzer 10 Flow Cytometer (Miltenyi Biotec, Bergisch Gladbach, Germany) within 1 h.

A549 cells [10] = assay: Levels of sphingosine, ceramide and S1P (ELISA); type: cell-based, human; settings: 5 and 10 μM
Procedure: After seeding 1 × 10^6 cells/well into a 6-well plate and incubating for 24 h, the synthetic compounds were treated by concentration. Then, cells were collected and freezing and thawing were repeated three to five times, and centrifuged supernatant was used for testing. The levels of sphingosine, ceramide, and S1P were measured according to the proposed manual using each ELISA kit (Mybiosource, Inc., San Diego, CA, USA).

A549 cells [11] = assay: Western blotting of apoptosis-related proteins; type: cell-based, human; settings: 5 and 10 μM, 24 h
Procedure: as §1

[12] = In vitro metabolic stability, mouse liver microsomes; type: in vitro ADME; settings: pooled liver microsomes, NADPH, 37 °C, 0 and 30 min
SK2 = target: T2, SK2 (Homo sapiens, UniProt Q9NRA0); assay: SK2 activity assay (Adapta screening system); settings: read-out: SK2 inhibitory efficacy
T2 sequence (Q9NRA0 1-654): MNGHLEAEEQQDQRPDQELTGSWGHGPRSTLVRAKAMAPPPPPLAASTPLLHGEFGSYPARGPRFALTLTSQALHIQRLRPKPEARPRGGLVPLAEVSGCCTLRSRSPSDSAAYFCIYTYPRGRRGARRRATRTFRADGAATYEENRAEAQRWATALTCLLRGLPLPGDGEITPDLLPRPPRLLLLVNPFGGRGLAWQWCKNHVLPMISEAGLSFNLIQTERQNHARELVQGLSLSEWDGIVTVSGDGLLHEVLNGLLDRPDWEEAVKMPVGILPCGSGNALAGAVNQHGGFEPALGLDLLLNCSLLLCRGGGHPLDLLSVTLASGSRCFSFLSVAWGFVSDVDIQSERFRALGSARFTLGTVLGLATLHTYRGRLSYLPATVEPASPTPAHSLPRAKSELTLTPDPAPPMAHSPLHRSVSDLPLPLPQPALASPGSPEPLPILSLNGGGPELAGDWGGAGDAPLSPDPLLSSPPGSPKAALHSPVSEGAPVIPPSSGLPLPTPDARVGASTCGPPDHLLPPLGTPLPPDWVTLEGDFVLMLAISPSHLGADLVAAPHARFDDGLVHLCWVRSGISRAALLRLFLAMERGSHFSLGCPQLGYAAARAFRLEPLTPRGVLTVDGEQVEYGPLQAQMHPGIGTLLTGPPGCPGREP

SK1 [13] = target: T1, SK1; set-up: purchased Thermo Fisher Scientific; method as in PMID 32526899; settings: read-out: SK1 inhibitory effect (IC50); cited from earlier work
SK1 [14] = target: T1, SK1; set-up: purchased Thermo Fisher Scientific; method as in PMID 32526899; settings: cited from earlier work
[15] = previous studies; cited from earlier work

For `Cc1cc(CN(Cc2cc(C)cc(CS(=O)(=O)c3ccccc3)c2)c2ccc(CCN3CCC(O)CC3)cc2)cc(CS(=O)(=O)c2ccccc2)c1` [Compound 2, 1-(4-(Bis(3-methyl-5-((phenylsulfonyl)methyl)benzyl)amino)phenethyl)piperidin-4-ol], the “MS RLM” value [1] was 29.1, the “dependence of cytotoxic efficacy on SK1/SK2 (siRNA knockdown)” value (A549 cells [2]) was “more dependent on SK1, although SK2 is also partially involved” and the “selectivity for SK1” value (SK1 [3]; SK1 vs SK2, compared to PF-543) was “lower selectivity for SK1 compared to PF-543”. The inhibition at 10 µM (SK1 [3]; read-out: SK1 inhibitory efficacy) was 39%, the “expression of proteins and mRNAs of SK1 and SK2” value (A549 cells [4]) was “did not affect” and the “change in mitochondrial membrane potential (MMP), JC-10” value (A549 cells [5]) was “significantly increased compared to that after treatment with PF-543”. The “MS HLM” value [6] was 18.1, the “cytotoxic effects compared with FTY720” value (A549 and H1299 cells; 20 and 40 μM, A549 and H1299 cells) was “cytotoxic effects similar to those of FTY720” and the IC50 (A549 and H1299 cells; Homo sapiens, 24 h, read-out: IC50 (cytotoxic effect)) was 7.07 µM. For the same molecule, the “MS DLM” value [7] was 18.6, the colony formation (A549 cells [8]) was “reduce colony formation in a concentration-dependent manner” and the “apoptotic effect (annexin-V)” value (A549 cells [9]; 5 μM) was “significant effect”. The “apoptotic effect (annexin-V)” value (A549 cells [9]; 10 μM) was “significantly higher apoptotic effect compared to PF-543”, the S1P levels (A549 cells [10]) was “reduced” and the ceramide levels (A549 cells [10]) was “increased”. For the same molecule, the sphingosine levels (A549 cells [10]) was “sphingosine expression at a level similar to that of PF-543”, the “levels of PARP, Caspase-3 and cleaved PARP” value (A549 cells [11]) was “levels of PARP and Caspase-3 were decreased and cleavage of PARP was increased” and the “MS MLM” value [12] was 24.6. The inhibition at 10 µM (SK2) was 44%.

For `Cc1cc(CN(Cc2cc(C)cc(CS(=O)(=O)c3ccccc3)c2)c2ccc(CCO)cc2)cc(CS(=O)(=O)c2ccccc2)c1` [Compound 7], the IC50 (SK1 [13]) is listed as 0.14 µM and the “binding affinity for SK1 (Ka)” value (SK1 [14]) is listed as 3.9e+07 M⁻¹.

For `Cc1cc(CS(=O)(=O)c2ccccc2)cc(OCc2ccc(CN3CCC[C@@H]3CO)cc2)c1` [PF-543, reference compound], the “MS RLM” value [1] is listed as 7.8, the “MS DLM” value [7] is listed as 7.3 and the “metabolic stability (MS)” value [15] is listed as “poor”. The “MS MLM” value [12] was 9.4.
